Experimental data reported in US20210369720A1, “SYNERGISTIC COMPOSITION HAVING NEUROPROTECTIVE PROPERTIES AND METHODS OF USE THEREOF” (Rutgers, The State University of New Jersey, priority 2018, published 2021).

Legend:
Syn^Tg mice = experiment: Wire Hang test, Syn^Tg mice; assay type: in vivo; details: EHT 12 mg/kg/day in chow and/or caffeine 50 mg/kg/day in drinking water from weaning until six months of age, vs untreated Syn^Tg mice
Text: Thy1-α-synuclein transgenic mice (Syn^Tg) on BDF1 background overexpressing human wild-type α-synuclein under the control of the Thy1 promoter were maintained by mating heterozygous transgenic females with WT BDF1 males (Rockenstein E, et al. (2002) Differential neuropathological alterations in transgenic mice expressing alpha-synuclein from the platelet-derived growth factor and Thy-1 promoters. J Neurosci Res 68(5):568-578). BDF1 mice (mixed C57BL/6-DBA/2) were generated every three months by mating female C57BL/6 (The Jackson Laboratory) and male DBA/2 mice (Charles River). Experiments were performed with male transgenic mice and their WT littermates. […] Wild-type littermates received regular water and control chow. […] At two months of age, mice were inoculated with α-Syn PFF unilaterally in the striatum. These treatments continued throughout the experiment until animals were sacrificed. Mice were weighed and their food and water intake was quantified weekly. Animals were housed 2-5/cage in an AAALAC approved facility in a temperature- and humidity-controlled environment under a 12-hour light/dark cycle and were maintained on a diet of lab chow and water ad libitum. […]

PP2A = experiment: Western blot of PP2A methylation, ipsilateral striatal tissue lysates of α-Syn PFF inoculated mice; assay type: in vivo; details: EHT 12 mg/kg/day and/or caffeine 50 mg/kg/day, vs untreated α-Syn PFF inoculated mice
Text: Thy1-α-synuclein transgenic mice (Syn^Tg) on BDF1 background overexpressing human wild-type α-synuclein under the control of the Thy1 promoter were maintained by mating heterozygous transgenic females with WT BDF1 males (Rockenstein E, et al. (2002) Differential neuropathological alterations in transgenic mice expressing alpha-synuclein from the platelet-derived growth factor and Thy-1 promoters. J Neurosci Res 68(5):568-578). BDF1 mice (mixed C57BL/6-DBA/2) were generated every three months by mating female C57BL/6 (The Jackson Laboratory) and male DBA/2 mice (Charles River). Experiments were performed with male transgenic mice and their WT littermates. […] Wild-type littermates received regular water and control chow. […] At two months of age, mice were inoculated with α-Syn PFF unilaterally in the striatum. These treatments continued throughout the experiment until animals were sacrificed. Mice were weighed and their food and water intake was quantified weekly. Animals were housed 2-5/cage in an AAALAC approved facility in a temperature- and humidity-controlled environment under a 12-hour light/dark cycle and were maintained on a diet of lab chow and water ad libitum. All animal procedures were approved by the Rutgers-Robert Wood Johnson Medical School Institutional Animal Care and Use Committee and were performed according to the National Institutes of Health Guide for the Care and Use of Laboratory Animals.
α-Syn PFF solution was sonicated at 60% amplitude 30 times (0.5 sec on, 0.5 sec off). During the stereotactic surgery, two month old WT C57BL/6 mice were anesthetized by Ketamine/xylazine (90/4.5 mg/kg, i.p., Ketaset from Zoetis, and Anased from Akorn) and positioned in a digital stereotaxic apparatus (Stoelting, Wood Dale, Ill.). […]
Human neuroblastoma SH-SY5Y cells were cultured in DMEM-F12 with 10% FBS. […] Protein concentration was determined by bicinchonic acid (BCA) method (Pierce), equal amount of protein was separated on 5-20% SDS-PAGE gel (Genescript) and transferred to nitrocellulose or PVDF membrane (Biorad). […]

## CCCCCCCCCCCCCCCCCCCC(=O)NCCc1c[nH]c2ccc(O)cc12 [EHT, eicosanoyl-5-hydroxytryptamide]
Syn^Tg mice
  performance on the wire hang test: did so only on the Wire Hang test
PP2A
  methyl- to demethyl-PP2A ratio: insignificant increase
  methyl-PP2A levels: insignificant increase
